Converted amounts (≈) assume the structure as drawn.
Tests used:
Type in all cases: cell-based
[1] = test system: S. aureus SR3637 (H-MRSA); test: MIC by agar dilution method, S. aureus SR3637 (H-MRSA); settings: Methicillin High-Resistant Staphylococcus Aureus; for MIC: MRSA, read-out: MIC (minimum inhibitory concentration) S. aureus SR3637 (H-MRSA)
Protocol: (§1) The MIC (minimum inhibitory concentration) value of the invention compounds against various bacterial was determined by the usual agar dilution method.

[2] = test system: S. epidermidis SR25009 (MRSE); test: MIC by agar dilution method, S. epidermidis SR25009 (MRSE); settings: Methicillin High-Resistant Staphylococcus Epidermidis; for MIC: MRSE, read-out: MIC (minimum inhibitory concentration) S. epidermidis SR25009 (MRSE)
Protocol: as §1

[3] = test system: E. cloacae SR4321 (Bla++); test: MIC by agar dilution method, E. cloacae SR4321 (Bla++); settings: AmpC High-Production Cephem Resistant Strain; for MIC: Enterobacter cloacae, read-out: MIC (minimum inhibitory concentration) E. cloacae SR4321 (Bla++)
Protocol: as §1

P. aeruginosa SR24-12 = test: MIC by agar dilution method, P. aeruginosa SR24-12; settings: for MIC: Pseudomonas aeruginosa, SR2412, AmpC High-Production Cephem Resistant Strain, read-out: MIC (minimum inhibitory concentration) P. aeruginosa SR24-12
Protocol: as §1

Compound | MIC [1] [µg/mL] | MIC [2] [µg/mL] | MIC [3] [µg/mL] | MIC (P. aeruginosa SR24-12) [µg/mL] | MIC (minimum inhibitory concentration) S. aureus SR3637 (H-MRSA) [1] [µg/mL] | MIC (minimum inhibitory concentration) S. epidermidis SR25009 (MRSE) [2] [µg/mL] | MIC (minimum inhibitory concentration) E. cloacae SR4321 (Bla++) [3] [µg/mL] | MIC (minimum inhibitory concentration) P. aeruginosa SR24-12 (P. aeruginosa SR24-12; AmpC High-Production Cephem Resistant Strain) [µg/mL]
CNCCCn1ccc2c1ccc[n+]2CC1=C(C(=O)[O-])N2C(=O)C(NC(=O)/C(=N\O[C@H](C)C(=O)O)c3nc(N)sc3Cl)C2SC1 (stereo partly drawn) [Ex. 8] | 32 (≈ 47.3 µM) | 32 (≈ 47.3 µM) | 4 (≈ 5.91 µM) | 4 (≈ 5.91 µM) | – | – | – | –
CNCCCn1c(N)nc2c1ccc[n+]2CC1=C(C(=O)[O-])N2C(=O)[C@@H](NC(=O)/C(=N\O[C@@H](C)C(=O)O)c3nc(N)sc3Cl)C2SC1 (stereo partly drawn) [Ex. 79] | 8 (≈ 11.5 µM) | 8 (≈ 11.5 µM) | 2 (≈ 2.89 µM) | 4 (≈ 5.77 µM) | – | – | – | –
C=C(O/N=C(\C(=O)NC1C(=O)N2C(C(=O)[O-])=C(C[n+]3cccc4c3ccn4CCCNC)CSC12)c1nc(N)sc1Cl)C(=O)O (stereo not drawn) [Ex. 19] | 16 (≈ 23.7 µM) | 8 (≈ 11.8 µM) | 1 (≈ 1.48 µM) | 8 (≈ 11.8 µM) | – | – | – | –
CNCCNc1cc[n+](CC2=C(C(=O)[O-])N3C(=O)[C@@H](NC(=O)/C(=N\O[C@@H](C)C(=O)O)c4nc(N)sc4Cl)[C@H]3SC2)cc1 [Ex. 124] | 16 (≈ 25 µM) | 8 (≈ 12.5 µM) | 4 (≈ 6.26 µM) | 4 (≈ 6.26 µM) | – | – | – | –
C[C@H](N)Cn1c(N)nc2c1ccc[n+]2CC1=C(C(=O)[O-])N2C(=O)C(NC(=O)/C(=N\O[C@@H](C)C(=O)O)c3nc(N)sc3Cl)C2SC1 (stereo partly drawn) [Ex. 98] | 8 (≈ 11.8 µM) | 8 (≈ 11.8 µM) | 2 (≈ 2.94 µM) | 2 (≈ 2.94 µM) | – | – | – | –
C[C@H](O/N=C(\C(=O)N[C@@H]1C(=O)N2C(C(=O)[O-])=C(C[n+]3ccc(NC4CCNC4)cc3)CS[C@H]12)c1nc(N)sc1Cl)C(=O)O (stereo partly drawn) [Ex. 132] | 16 (≈ 24.6 µM) | 8 (≈ 12.3 µM) | 4 (≈ 6.14 µM) | 4 (≈ 6.14 µM) | – | – | – | –
CC(C)(O/N=C(\C(=O)N[C@@H]1C(=O)N2C(C(=O)[O-])=C(C[n+]3ccccc3)CS[C@H]12)c1csc(N)n1)C(=O)O [Ref. 1, Ceftazidime, reference compound] | – | – | – | – | >128 | >128 | 64 (≈ 117 µM) | 64 (≈ 117 µM)
CC(C)(O/N=C(\C(=O)NC1C(=O)N2C(C(=O)[O-])=C(C[n+]3ccccc3)CSC12)c1nc(N)sc1Cl)C(=O)O (stereo not drawn) [Ex. 3] | 32 (≈ 55.1 µM) | 32 (≈ 55.1 µM) | 16 (≈ 27.5 µM) | 8 (≈ 13.8 µM) | – | – | – | –
CNCCCn1ccc2c1ccc[n+]2CC1=C(C(=O)[O-])N2C(=O)C(NC(=O)/C(=N\OC(C)(C)C(=O)O)c3nc(N)sc3Br)C2SC1 (stereo not drawn) [Ex. 20] | 16 (≈ 21.7 µM) | 16 (≈ 21.7 µM) | 8 (≈ 10.9 µM) | 4 (≈ 5.44 µM) | – | – | – | –

Reference: patent US7696354B2, “Cephem compounds having broad antibacterial spectrum” (Shionogi & Co., Ltd., priority 2002, dated 2010)
